We go through five molecules from paper PMC3969779 (Journal of molecular biology, 2013).

As usually defined, the Kd is the free concentration of one partner at which half of the binding sites on the other are occupied at equilibrium, for simple one-to-one binding. A high value points to lower affinity.

Assay [1] concerns the target T1, BRPF1 bromodomain (Homo sapiens, UniProt P55201).
T1 sequence (P55201 629-742): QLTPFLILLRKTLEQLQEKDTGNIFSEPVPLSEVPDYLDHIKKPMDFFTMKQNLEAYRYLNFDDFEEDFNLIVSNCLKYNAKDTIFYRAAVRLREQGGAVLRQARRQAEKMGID
Put plainly: NMR titration. It is filed as binding.

The target in assay [2] is T1, BRPF1 bromodomain. The assay can be described thus: Isothermal titration calorimetry. It is filed as binding. (In general: In ITC the heat of successive injections is recorded.)
Assay [3] addresses T2, Histone H4K12ac peptide (4-17) (Homo sapiens).
T2 chain: GKGGKGLGK(Ac)GGAKR
The assay can be described thus: NMR titration.

Assay [4] deals with T3, Histone H4K8ac peptide (4-17) (Homo sapiens, H4 K8 acetylated).
T3 chain: GKGGKGLGKGGAKR
Put plainly: NMR titration.

The target in assay [5] is T4, Histone H2AK5ac peptide (1-12) (Homo sapiens).
T4 chain: SGRGK(Ac)QGGKARA
The assay can be described thus: NMR titration.

For assay [6], the target named is T5, Histone H3K14ac peptide (8-19) (Homo sapiens).
T5 chain: RKSTGGK(Ac)APRKQ
The assay can be described thus: NMR titration.

Ends that are not written are not given here.

Consider SGRGK(Ac)QGGKARA-NH2 [H2AK5ac (1-12)], for which the Kd at BRPF1 bromodomain [1] amounted to 57 ± 4 µM; on BRPF1 bromodomain [2], 48.5 ± 1.5 µM.

Consider `CC(=O)NCCCC[C@H](NC(=O)CNC(=O)CNC(=O)[C@H](CCCCN)NC(=O)CN)C(=O)NCC(=O)N[C@@H](CC(C)C)C(=O)NCC(=O)N[C@@H](CCCCN)C(=O)NCC(=O)NCC(=O)N[C@@H](C)C(=O)N[C@@H](CCCCN)C(=O)N[C@@H](CCCNC(=N)N)C(N)=O` [H4K8ac (4-17)], for which binding at BRPF1 bromodomain [1] was characterised by a dissociation constant (Kd) of 697 ± 57 µM.

Turning to `CC(=O)NCCCC[C@H](NC(=O)CNC(=O)CNC(=O)[C@@H](NC(=O)[C@H](CO)NC(=O)[C@H](CCCCN)NC(=O)[C@@H](N)CCCNC(=N)N)[C@@H](C)O)C(=O)N[C@@H](C)C(=O)N1CCC[C@H]1C(=O)N[C@@H](CCCNC(=N)N)C(=O)N[C@@H](CCCCN)C(=O)N[C@@H](CCC(N)=O)C(N)=O` [H3K14ac (8-19)], the Kd at BRPF1 bromodomain [1] stood at 597 ± 53 µM; at BRPF1 bromodomain [2], 626 ± 27 µM.

In the case of `CC(=O)NCCCC[C@H](NC(=O)CNC(=O)[C@H](CC(C)C)NC(=O)CNC(=O)[C@H](CCCCN)NC(=O)CNC(=O)CNC(=O)[C@H](CCCCN)NC(=O)CN)C(=O)NCC(=O)NCC(=O)N[C@@H](C)C(=O)N[C@@H](CCCCN)C(=O)N[C@@H](CCCNC(=N)N)C(N)=O` [H4K12ac (4-17)], the figures for the dissociation constant Kd at BRPF1 bromodomain [1] and at BRPF1 bromodomain [2] were 74 ± 18 µM and 86.5 ± 9.1 µM, respectively.

B1: BRPF1 bromodomain 629-742 (protein)
chain: QLTPFLILLRKTLEQLQEKDTGNIFSEPVPLSEVPDYLDHIKKPMDFFTMKQNLEAYRYLNFDDFEEDFNLIVSNCLKYNAKDTIFYRAAVRLREQGGAVLRQARRQAEKMGID
For the molecule B1, the Kd was found to be 74 µM in assay [3], 697 µM in assay [4], 57 µM in assay [5] and 597 µM in assay [6].
